Columns and labels:
[1] = target: T1, BRD4 bromo domain 2 [BRD4(2)] (Homo sapiens, UniProt O60885); assay: BRD4/acetylated peptide H4 binding assay (TR-FRET), BRD4 bromo domain 2; settings: inhibition of BRD4(2)/Ac-H4 peptide interaction
T1 construct: N-terminally His6-tagged BRD4(2) (amino acids 357-445); made in house; host or cells: E. coli
Outline: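 Binding of His6-BRD4(2) (aa 357-445, 100 nM final) to biotinylated tetra-acetylated H4 peptide read by TR-FRET (665/620 nm). Compound preincubated 10 min at 22 °C, then 1 h at 22 °C plus ≥3 h at 4 °C. Eleven concentrations (0.1 nM–20 μM) in duplicate; IC50 by 4-parameter fit.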

[2] = test system: MOLM-13 cells; assay: Cell proliferation assay (alamarBlue), MOLM-13; type: cell-based; settings: Homo sapiens; MOLM-13 (acute myeloid leukaemia), 96 hours
Description: (§1) In accordance with the invention, the ability of the substances to inhibit cell proliferation was determined. Cell viability was determined by means of the alamarBlue® reagent (Invitrogen) in a Victor X3 Multilabel Reader (Perkin Elmer). The excitation wavelength was 530 nm and the emission wavelength […].
The MOLM-13 cells (DSMZ, ACC 554) were sown at a concentration of 4000 cells/well in 100 μl of growth medium (RPMI1640, 10% FCS) on 96-well microtitre plates.
(§2) After overnight incubation at 37° C., the fluorescence values were determined (CI values). Then the plates were treated with various substance dilutions (1E-5 M, 3E-6 M, 1E-6 M, 3E-7 M, 1E-7 M, 3E-8 M, 1E-8 M) and incubated at 37° C. over 96 hours (MOLM-13, B16F10, CHL-1 cells) or 120 hours (MOLP-8 cells). Subsequently, the fluorescence values were determined (CO values). For the data analysis, the CI values were subtracted from the CO values and the results were compared between cells which had been treated with various dilutions of the substance or only with buffer solution. The IC50 values (substance concentration needed for 50% inhibition of cell proliferation) were calculated therefrom.

[3] = test system: MOLP-8 cells; assay: Cell proliferation assay (alamarBlue), MOLP-8; type: cell-based; settings: Homo sapiens; MOLP-8 (multiple myeloma), 120 hours
Description: as §1
The MOLP-8 cells (DSMZ, ACC 569) were sown at a concentration of 4000 cells/well in 100 μl of growth medium (RPMI1640, 20% FCS) on 96-well microtitre plates.
as §2

SMILES	IC50 [1] [nM]	IC50 [2] [nM]	IC50 [3] [nM]
C[C@@H]1C(=O)N(C)c2ccc(Nc3cccc(C(=O)N4CCN(C)CC4)c3)nc2N1C1CCOCC1 [Example 15, (3R)-1,3-Dimethyl-6-({3-[(4-methylpiperazin-1-yl)carbonyl]phenyl}amino)-4-(tetrahydro-2H-pyran-4-yl)-3,4-dihydropyrido[2,3-b]pyrazin-2(1H)-one]	196	511	313
CC(C)N1c2nc(Nc3cccc(S(=O)(=O)N4CCN(C)CC4)c3)ccc2N(C)C(=O)[C@H]1C [Example 43, (3R)-4-isopropyl-1,3-dimethyl-6-({3-[(4-methylpiperazin-1-yl)sulphonyl]phenyl}-amino)-3,4-dihydropyrido-[2,3-b]pyrazin-2(1H)-one]	96	196	144
C[C@@H]1C(=O)N(C)c2ccc(Nc3cccc(S(=O)(=O)N4CCN(C)CC4)c3)nc2N1C1CCOCC1 [Example 12, (3R)-1,3-Dimethyl-6-({3-[(4-methylpiperazin-1-yl)sulphonyl]phenyl}amino)-4-(tetrahydro-2H-pyran-4-yl)-3,4-dihydropyrido[2,3-b]pyrazin-2(1H)-one]	68	195	126
Cc1nnc(-c2cccc(Nc3ccc4c(n3)N(C3CCOCC3)[C@H](C)C(=O)N4C)c2)o1 [Example 134, (3R)-1,3-Dimethyl-6-{[3-(5-methyl-1,3,4-oxadiazol-2-yl)phenyl]amino}-4-(tetrahydro-2H-pyran-4-yl)-3,4-dihydropyrido[2,3-b]pyrazin-2(1H)-one]	191	546	453
C[C@@H]1C(=O)N(C)c2ccc(Nc3cccc(C(=O)NCCN(C)C)c3)nc2N1C1CCCC1 [Example 4, 3-{[(3R)-4-Cyclopentyl-1,3-dimethyl-2-oxo-1,2,3,4-tetrahydropyrido[2,3-b]pyrazin-6-yl]amino}-N-[2-(dimethylamino)ethyl]benzamide]	101	535	249
C[C@@H]1C(=O)N(C)c2ccc(Nc3cccc(S(=O)(=O)N4CCOCC4)c3)cc2N1C1CCOCC1 [Example 8, (3R)-1,3-Dimethyl-6-{[3-(morpholin-4-ylsulphonyl)phenyl]amino}-4-(tetrahydro-2H-pyran-4-yl)-3,4-dihydroquinoxalin-2(1H)-one]	89	271	
CC(C)N1c2nc(Nc3cccc(S(=O)(=O)NC4CCN(C)CC4)c3)ccc2N(C)C(=O)[C@H]1C [Example 51, 3-{[(3R)-4-isopropyl-1,3-dimethyl-2-oxo-1,2,3,4-tetrahydropyrido[2,3-b]pyrazin-6-yl]amino}-N-(1-methylpiperidin-4-yl)benzenesulphonamide]	99	97	58
CC1C(=O)N(C)c2ccc(Nc3cccc(C(=O)NC4CCN(C)CC4)c3)nc2N1c1ccccc1 (racemic) [Example 104, 3-[(1,3-dimethyl-2-oxo-4-phenyl-1,2,3.4-tetrahydropyrido[2,3-b]pyrazin-6-yl)amino]-A-(1-methylpiperidin-4-yl)benzamide]	471	1440	826
C[C@@H]1C(=O)N(C)c2ccc(Nc3cccc(S(=O)(=O)NCCN(C)C)c3)nc2N1C1CCOCC1 [Example 21]	53	237	175
C[C@@H]1C(=O)N(C)c2ccc(Nc3cccc(C(=O)NC4CCN(C)CC4)c3)nc2N1C1CCOCC1 [Example 13, 3-{[(3R)-1,3-Dimethyl-2-oxo-4-(tetrahydro-2H-pyran-4-yl)-1,2,3,4-tetrahydropyrido[2,3-b]pyrazin-6-yl]amino}-N-(1-methylpiperidin-4-yl)benzamide]	218	697	306
C[C@@H]1C(=O)N(C)c2ccc(Nc3cccc(S(=O)(=O)N(C)C)c3)cc2N1C1CCOCC1 [Example 7, 3-{[(3R)-1,3-Dimethyl-2-oxo-4-(tetrahydro-2H-pyran-4-yl)-1,2,3,4-tetrahydroguinoxalin-6-yl]amino}-N,N-dimethylbenzenesulphonamide]	71	149	

Continued, in another order:

IC50 [1] [nM]	IC50 [2] [nM]	SMILES	IC50 [3] [nM]
170	343	C[C@@H]1C(=O)N(C)c2ccc(Nc3cccc(C(=O)N[C@H]4CC[C@H](N5CCN(CC6CC6)CC5)CC4)c3)nc2N1C1CCOCC1 [Example 14, N-{trans-4-[4-(Cyclopropylmethyl)piperazin-1-yl]cyclohexyl}-3-{[(3R)-1,3-dimethyl-2-oxo-4-(tetrahydro-2H-pyran-4-yl)-1,2,3,4-tetrahydropyrido[2,3-b]pyrazin-6-yl]amino}benzamide]	240
59	326	C[C@@H]1C(=O)N(C)c2ccc(Nc3cccc(C(=O)N[C@H]4CC[C@H](N5CCN(CC6CC6)CC5)CC4)c3)nc2N1C1CCCC1 [Example 5, 3-{[(3R)-4-Cyclopentyl-1,3-dimethyl-2-oxo-1,2,3,4-tetrahydropyrido[2,3-b]pyrazin-6-yl]amino}-N-{trans-4-[4-(cyclopropylmethyl)piperazin-1-yl]cyclohexyl}benzamide]	136
69	140	C[C@@H]1C(=O)N(C)c2ccc(Nc3cccc(S(=O)(=O)N[C@H]4CC[C@H](N5CCN(CC6CC6)CC5)CC4)c3)nc2N1C1CCOCC1 [Example 35, N-{trans-4-[4-(cyclopropylmethyl)-piperazin-1-yl]cyclohexyl}-3-{[(3R)-1,3-dimethyl-2-oxo-4-(tetrahydro-2H-pyran-4-yl)-1,2,3,4-tetrahydropyrido[2,3-b]pyrazin-6-yl]amino}-benzenesulphonamide]	23
116	287	CC(C)N1c2nc(Nc3cccc(C(=O)N[C@H]4CC[C@H](N5CCN(CC6CC6)CC5)CC4)c3)ccc2N(C)C(=O)[C@H]1C [Example 79, N-{trans-4-[4-(cyclo-propylmethyl)piperazin-1-yl]cyclohexyl}-3-{[(3R)-4-isopropyl-1,3-dimethyl-2-oxo-1,2,3,4-tetrahydropyrido[2,3-b]pyrazin-6-yl]amino}benzamide]	77
89	352	C[C@@H]1C(=O)N(C)c2ccc(Nc3cccc(C(=O)NC4CCN(C)CC4)c3)nc2N1C1CCCC1 [Example 2, 3-{[(3R)-4-Cyclopentyl-1,3-dimethyl-2-oxo-1,2,3,4-tetrahydropyrido[2,3-b]pyrazin-6-yl]amino}-N-(1-methylpiperidin-4-yl)benzamide]	114
91	296	C[C@@H]1C(=O)N(C)c2ccc(Nc3cccc(C(=O)NC4CN(C)C4)c3)nc2N1C1CCCC1 [Example 3, 3-{[(3R)-4-Cyclopentyl-1,3-dimethyl-2-oxo-1,2,3,4-tetrahydropyrido[2,3-b]pyrazin-6-yl]amino}-N-(1-methylazetidin-3-yl)benzamide]	187
55	613	C[C@@H]1C(=O)N(C)c2ccc(Nc3cccc(C(=O)N4CCN(C)CC4)c3)nc2N1C1CCCC1 [Example 1, (3R)-4-Cyclopentyl-1,3-dimethyl-6-({3-[(4-methylpiperazin-1-yl)carbonyl]phenyl}amino)-3,4-dihydropyrido[2,3-b]pyrazin-2(1H)-one]	337

From US20160176867A1, “MODIFIED BET-PROTEIN-INHIBITING DIHYDROQUINOXALINONES AND DIHYDROPYRIDOPYRAZINONES” (BAYER PHARMA AKTIENGESELLSCHAFT, priority 2013, published 2016)
